In the NIST ThermoML archive (doi:10.1021/je800110r):

Settings: 303.16 K, Liquid, Vibrating tube method

CCCCCCCCCC [decane]
Settings	mass density [kg/m3]
6904 kPa	727.9
6929 kPa	727.9
6949 kPa	727.9
6969 kPa	727.8
6992 kPa	727.8
7009 kPa	728
7035 kPa	727.9
7053 kPa	728
7084 kPa	727.9
7102 kPa	728
7120 kPa	727.9
7147 kPa	728
7171 kPa	728
7193 kPa	728
7215 kPa	728.1
7235 kPa	728.1
7258 kPa	728.1
7279 kPa	728.1
7295 kPa	728
7309 kPa	728.1
7326 kPa	728.1
7343 kPa	728.2
7357 kPa	728.1
7371 kPa	728.2
7388 kPa	728.3
7403 kPa	728.1
7422 kPa	728.3
7442 kPa	728.3
7459 kPa	728.3
7474 kPa	728.2
7491 kPa	728.3
7511 kPa	728.2
7532 kPa	728.4
7549 kPa	728.3
7567 kPa	728.3
7588 kPa	728.4
7605 kPa	728.4
7626 kPa	728.4
7644 kPa	728.3
7665 kPa	728.5
7683 kPa	728.3
7699 kPa	728.5
7720 kPa	728.4
7737 kPa	728.4
7756 kPa	728.5
7783 kPa	728.5
7802 kPa	728.5
7819 kPa	728.5
7847 kPa	728.5
7867 kPa	728.5
7880 kPa	728.5
7901 kPa	728.6
7922 kPa	728.6
7936 kPa	728.6
7957 kPa	728.7
7974 kPa	728.6
7993 kPa	728.7
8014 kPa	728.6
8028 kPa	728.7
8052 kPa	728.6
8069 kPa	728.7
8088 kPa	728.7
8105 kPa	728.8
8124 kPa	728.7
8139 kPa	728.7
8157 kPa	728.8
8172 kPa	728.9
8191 kPa	728.8
8214 kPa	728.9
8229 kPa	728.9
8249 kPa	728.8
8265 kPa	728.8
8287 kPa	728.9
8313 kPa	729
8328 kPa	728.9
8349 kPa	728.9
8365 kPa	729
8382 kPa	729.1
8400 kPa	729.1
8417 kPa	729
8439 kPa	728.9
8459 kPa	729
8476 kPa	729.1
8493 kPa	729.1
8509 kPa	729
8529 kPa	729
8546 kPa	729.1
8561 kPa	729.2
8582 kPa	729.1
8601 kPa	729.2
8617 kPa	729.2
8632 kPa	729.2
8647 kPa	729.2
8663 kPa	729.2
8682 kPa	729.2
8699 kPa	729.2
8715 kPa	729.2
8730 kPa	729.2
8742 kPa	729.3
8752 kPa	729.3
8768 kPa	729.2
8778 kPa	729.3
8792 kPa	729.2
8807 kPa	729.4
8821 kPa	729.3
8831 kPa	729.3
8847 kPa	729.2
8862 kPa	729.3
8874 kPa	729.2
8884 kPa	729.4
8895 kPa	729.3
8905 kPa	729.3
8920 kPa	729.4
8936 kPa	729.4
8948 kPa	729.4
8961 kPa	729.5
8973 kPa	729.4
8986 kPa	729.4
8998 kPa	729.5
9014 kPa	729.5
9025 kPa	729.4
9040 kPa	729.5
9051 kPa	729.5
9064 kPa	729.4
9075 kPa	729.5
9092 kPa	729.6
9107 kPa	729.6
9118 kPa	729.5
9133 kPa	729.6
9151 kPa	729.6
9166 kPa	729.5
9179 kPa	729.5
9192 kPa	729.6
9204 kPa	729.6
9219 kPa	729.7
9237 kPa	729.6
9251 kPa	729.6
